Reference: publication PMC11597202, “Novel Thiazole-Fused [4,5-g] or [5,4-g]Quinazolin-8-ones and Their Quinazoline Analogues: Synthesis and Biological Evaluation” (Pharmaceuticals, 2024)

Key:
[1] = In vitro cytotoxic assay, MCF-7; format: cell-based; settings: human, MCF-7 cells (breast cancer cell line); also: 0.1-25 µM tested
Method: (§1) Skin normal fibroblastic cells were purchased from Lonza (Basel, Switzerland). […] All culture media were supplemented by 10% of FBS, 1% of penicillin–streptomycin and 2 mM glutamine.
(§2) Chemicals were solubilized in DMSO at a concentration of 10 mM (stock solution) and diluted in culture medium to the desired final concentrations. […] Cells were plated in 96-well plates (4000 cells/well). Twenty-four hours after seeding, the cells were exposed to chemicals. […] Image acquisition and analysis were performed using a Cellomics ArrayScan VTI/HCS Reader (ThermoScientific, Les Ulis, France). The survival percentages were calculated as the percentage of cell number after compound treatment over cell number after DMSO treatment. The relative IC50 values were calculated using the curve fitting XLfit 5.5.0.5 (idbs) integrated in Microsoft Excel as an add-on.
(§3) 4.3.1. Cell culture. Skin normal fibroblastic cells are purchased from Lonza (Basel, Switzerland). Huh7- […]
(§4) from ATCC (American Type Culture Collection). […]
(§5) supplemented by 10% of FBS, 1% of penicillin-streptomycin and 2 mM glutamine.
(§6) 4.3.2. Cytotoxic assay. Chemicals were solubilized in DMSO at a concentration of 10 mM (stock solution) and diluted in culture medium to the desired final concentrations. The dose effect cytotoxic assays (IC50 determination) were performed by increasing the concentrations of each chemical (final well […]
(§7) Cells were plated in 96-well plates
(§8) (4000 cells/well). Twenty-four hours after seeding, cells were exposed to chemicals. After 48h of treatment, cells were washed in PBS and fixed in cooled 90% ethanol/5% acetic acid for 20 min and the […]
(§9) Image acquisition and analysis were performed using a Cellomics ArrayScan VTI/HCS Reader (ThermoScientific). The survival percentages were calculated as the percentage of cell number after compound treatment over cell number after DMSO treatment. The relative IC50 were calculated using the curve fitting XLfit 5.5.0.5 (idbs) integrated in Microsoft Excel as an add-on. The 4 Parameter Logistic Model or Sigmoidal Dose-Response Model describing the sigmoid-shaped response pattern was used (fit = (A+[(B-A)/(1+[(C/x)^D])]) where fit is the response and X is the tested concentration of the compound. The lower asymptote is A (also referred to as the bottom of the curve or lower plateau or the min) and the upper asymptote is B (also referred to as the top of the curve or upper plateau or the max). The slope of the linear part of the curve is described by the factor D. The parameter C is the concentration corresponding to the response midway between A and B. C is called “relative IC50” because it refers to the maximum response obtained by a […]
(§10) The results are represented as the mean ± standard error (SE) calculated from at least three independent experiments.

Pim-1 = target: T1, Pim-1 (Homo sapiens, UniProt P11309); experiment: ADP-Glo kinase inhibition assay, Pim-1; format: biochemical; settings: percentage of maximum activity of the DMSO control, mean n = 2, 10 µM ATP, read-out: Residual activity Pim-1; for remaining activity at 1 µM: 1 μM compound; for remaining activity at 10 µM: 10 μM compound
T1 construct: host or cells: bacteria
T1 sequence (P11309 whole entry): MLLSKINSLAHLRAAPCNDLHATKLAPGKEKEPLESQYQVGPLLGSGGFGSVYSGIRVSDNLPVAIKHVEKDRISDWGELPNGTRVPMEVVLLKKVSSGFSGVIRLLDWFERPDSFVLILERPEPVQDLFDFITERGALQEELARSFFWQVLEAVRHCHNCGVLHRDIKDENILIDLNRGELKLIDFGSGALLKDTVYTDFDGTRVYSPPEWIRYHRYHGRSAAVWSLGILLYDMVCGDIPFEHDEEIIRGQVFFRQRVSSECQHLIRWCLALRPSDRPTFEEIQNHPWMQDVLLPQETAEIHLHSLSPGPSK
Method: Kinase enzymatic activities were assayed in 384-well plates using the ADP-Glo^TM assay kit (Promega, Madison, WI, USA) according to the recommendations of the manufacturer. This luminescent ADP detection assay was described by Zegzouti and co-workers and provides a homogeneous and high-throughput screening method to measure kinase activity by quantifying the amount of ADP produced during a kinase reaction. Briefly, the reactions were carried out in a final volume of 6 µL for 30 min at 30 °C in an appropriate kinase buffer (10 mM MgCl2, 1 mM EGTA, 1 mM DTT, 25 mM Tris-HCl pH 7.5, 50 µg/mL heparin), with peptide or protein as substrate in the presence of 10 µM ATP. Peptide substrates were obtained from ProteoGenix (Schiltigheim, France) or Sigma for Histone H1, Poly (L-glutamic acid–L-tyrosine) sodium salt, Casein and MBP. After that, 6 µL of ADP-Glo^TM Kinase Reagent was added to stop the kinase reaction. After an incubation time of 50 min at room temperature (rt), 12 µL of Kinase Detection Reagent was added for one hour at rt. The transmitted signal was measured using the Envision (PerkinElmer, Waltham, MA, USA) microplate luminometer and expressed as Relative Light Units (RLUs). Kinase activities are expressed as percentages of remaining kinase activities detected after treatment with 1 or 10 µM of the tested compounds. The maximum kinase activity was measured in the absence of inhibitor but with an equivalent dose of DMSO (solvent of the tested compounds).
3. Kinase inhibition assays
Kinase enzymatic activities were assayed in 384-well plates using the ADP-GloTM assay kit (Promega, Madison, WI) according to the recommendations of the manufacturer. This luminescent ADP detection assay was described by Zegzouti and co-workers and provides a homogeneous and high-throughput screening method to measure kinase activity by quantifying the amount of ADP produced during a kinase reaction. Briefly, the reactions were carried out in a final volume of 6 µl for 30 min at 30°C in appropriate kinase buffer (10 mM MgCl2, 1 mM EGTA, 1 mM DTT, 25 mM Tris-HCl pH 7.5, 50 µg/mL heparin), with peptide or protein as substrate in the presence of 10 µM ATP. Peptide substrates were obtained from ProteoGenix (Schiltigheim, France) or Sigma for Histone H1, Poly (L-glutamic acid – L-tyrosine) sodium salt, Casein and MBP. After that, 6 µL of ADP-GloTM Kinase Reagent was added to stop the kinase reaction. After an incubation time of 50 min at room temperature (rt), 12 µL of Kinase Detection Reagent was added for 1 h at rt. The transmitted signal was measured using the Envision (PerkinElmer, Waltham, MA) microplate luminometer and expressed in Relative Light Unit (RLU). Kinase activities are expressed in percentages of remaining kinase activities detected after treatment with 1 or 10 µM of the tested compounds. The maximal kinase activity is measured in the absence of inhibitor but with an equivalent dose of DMSO (solvent of the tested compounds).
Table. Human protein kinases tested in the panel: CDK9, HASPIN, PIM1, GSK3b, CK1ε, JAK3, CLK1 […]
Protein Kinase Enzyme Description Substrate1
(Family) (Working concentration)
CDK9/CyclinT Human, recombinant, expressed by Peptide:
(CMGC) baculovirus in Sf9 insect cells […]
CLK1 Human, recombinant, expressed by Peptide: […]
(CMGC) baculovirus in Sf9 insect cells (57.3µM)
DYRK1A Human, recombinant, expressed by Peptide: […]
(CMGC) baculovirus in Sf9 insect cells (10.7µM)
PIM1 Human proto-oncogene, recombinant, Peptide: […]
(CAMK) expressed in bacteria (630 µM)
GSK3 Human, recombinant, expressed by Peptide:
(CMGC) baculovirus in Sf9 insect cells […]pEDEEE 3
HASPIN Human, kinase domain, amino acids 470 to Histone H3 peptide (1-21):
(Other) 798, recombinant, expressed in bacteria […] (8µM)
CK1ε Human, recombinant, expressed by Peptide: […]pAYSITA 2
(CK1) baculovirus in Sf9 insect cells (170µM)
JAK3 Human, recombinant, expressed by Peptide: […]
(TK) baculovirus in Sf9 insect cells (94µM) […]

[2] = In vitro cytotoxic assay, MDA-MB-468; format: cell-based; settings: human, MDA-MB-468 cells (breast cancer cell line); read-out: In vitro cytotoxic activity IC50, MBA-MB4-68
Method: as §1, §2, §3, §4, §5, §6, §7, §8, §9, §10

Row | SMILES | IC50 at 48 h [1] [µM] | remaining activity at 1 µM (Pim-1) [%] | remaining activity at 10 µM (Pim-1) [%] | IC50 at 48 h [2] [µM]
1 | COC(=N)c1nc2cc3c(=O)n(Cc4ccccc4)cnc3cc2s1 [Compound 6a, Methyl 7-benzyl-8-oxo-7,8-dihydrothiazolo[4,5-g]quinazoline-2-carbimidate] | 17 | 80 | 133 | 19
2 | COC(=N)c1nc2cc3ncn(Cc4ccccc4)c(=O)c3cc2s1 [Compound 6b, Methyl 7-benzyl-8-oxo-7,8-dihydrothiazolo[5,4-g]quinazoline-2-carbimidate] | 1 | 90 | 78 | 1
3 | COC(=N)c1nc2c(ccc3c(=O)n(Cc4ccccc4)cnc32)s1 [Compound 6c, Methyl 7-benzyl-6-oxo-6,7-dihydrothiazolo[5,4-h]quinazoline-2-carbimidate] | 7 | 74 | 86 | 13
4 | COC(=N)c1nc2ccc3c(=O)n(Cc4ccccc4)cnc3c2s1 [Compound 6d, Methyl 7-benzyl-6-oxo-6,7-dihydrothiazolo[4,5-h]quinazoline-2-carbimidate] | 8 | 92 | 94 | 5
5 | COC(=N)c1nc2cc3c(Nc4ccc(OC)cc4F)ncnc3cc2s1 [Compound 15a, Methyl 8-[(2-fluoro-4-methoxyphenyl)amino]thiazolo[4,5-g]quinazoline-2-carbimidate] | > 25 | 71 | 113 | 
6 | COC(=N)c1nc2cc3ncnc(Nc4ccc(OC)cc4F)c3cc2s1 [Compound 15b, Methyl 8-[(2-fluoro-4-methoxyphenyl)amino]thiazolo[5,4-g]quinazoline-2-carbimidate] |  | 74 | 105 | 
7 | COC(=N)c1nc2ccc3ncn(Cc4ccccc4)c(=O)c3c2s1 [Compound I, methyl 8-benzyl-9-oxo-8,9-dihydrothiazolo[5,4-f]quinazoline-2-carbimidate, reference compound] | 17 | 79 | 77 | 21
8 | COC(=N)c1nc2ccc3ncnc(Nc4ccc(OC)cc4F)c3c2s1 [Compound II, methyl 9-[(2-fluoro-4-methoxyphenyl)amino]thiazolo[5,4-f]quinazoline-2-carbimidate, reference compound] | 5 | 52 | 32 | 9
